# Literature values in article PMC10225205 (Cancer Medicine, 2023).
# Where two headings read alike, the source gives them in different places.
# Settings: cited from earlier work
smiles,measurement,setting,value
CCN1CCN(c2ccc(Nc3cc(N(C)C(=O)Nc4c(Cl)c(OC)cc(OC)c4Cl)ncn3)cc2)CC1 [infigratinib],Most commonly reported (>30%) TEAEs,global phase 1 study,"hyperphosphatemia, constipation, appetite decreased, stomatitis, diarrhea, nausea, and fatigue"
C=CC(=O)N1CC[C@H](n2nc(C#Cc3cc(OC)cc(OC)c3)c3c(N)ncnc32)C1 [futibatinib],Most common TEAE,"phase 1, Japanese patients with advanced solid tumors",hyperphosphatemia
same,Most frequently reported TEAEs,"phase 1 study, advanced solid tumors","hyperphosphatemia, diarrhea, constipation, and nausea"
COc1cc(OC)cc(N(CCNC(C)C)c2ccc3ncc(-c4cnn(C)c4)nc3c2)c1 [erdafitinib],Most common TEAE,in vivo,hyperphosphatemia
same,Most common TEAEs,"phase 1 multicenter study, advanced solid tumors","hyperphosphatemia, dry mouth, stomatitis, and asthenia"
